Blank lines part the entries; values can stand above or below the compound they belong to.
How the values were obtained:
[1] = biological target: T1, Type I 5α-Reductase from Human Scalp (Homo sapiens, UniProt P18405); experiment: Human Type I 5α-reductase assay (conversion of [3H]-testosterone to 5α-reduced metabolites); assay type: biochemical; conditions: pH 7.5, 0.3 μM; 50 nM [3H]-testosterone, pH 7.5, 25°, 180 min; compared to control reaction mixtures; read-out: percent inhibition of Type I AR
T1 construct: Scalp punch biopsies from graft recipient sites were obtained from human hair transplant procedures; from tissue; host or cells: human scalp punch biopsies (hair transplant graft recipient sites), homogenate, 100,000×g pellet
T1 sequence (P18405 1-259): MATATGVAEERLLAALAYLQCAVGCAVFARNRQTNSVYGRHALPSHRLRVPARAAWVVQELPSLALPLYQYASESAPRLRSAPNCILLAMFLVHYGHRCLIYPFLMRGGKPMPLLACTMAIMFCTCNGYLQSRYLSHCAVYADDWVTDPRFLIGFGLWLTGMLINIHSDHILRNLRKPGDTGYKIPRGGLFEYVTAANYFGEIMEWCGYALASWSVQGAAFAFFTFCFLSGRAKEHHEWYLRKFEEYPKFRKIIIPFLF

[2] = biological target: T2, Type II 5α-Reductase from Human Prostate (Homo sapiens, UniProt P31213); experiment: Human Type II 5α-reductase assay (conversion of [3H]-testosterone to 5α-reduced metabolites); assay type: biochemical; conditions: pH 5.5, 0.3 μM; sodium acetate pH 5.5, 25°, 30 min; compared to control reaction mixtures; read-out: percent inhibition of Type II AR
T2 construct: The same procedure as above was used for preparations using tissue from prostate surgery; from tissue; host or cells: human prostate tissue from surgery, homogenate, 100,000×g pellet
T2 sequence (P31213 1-254): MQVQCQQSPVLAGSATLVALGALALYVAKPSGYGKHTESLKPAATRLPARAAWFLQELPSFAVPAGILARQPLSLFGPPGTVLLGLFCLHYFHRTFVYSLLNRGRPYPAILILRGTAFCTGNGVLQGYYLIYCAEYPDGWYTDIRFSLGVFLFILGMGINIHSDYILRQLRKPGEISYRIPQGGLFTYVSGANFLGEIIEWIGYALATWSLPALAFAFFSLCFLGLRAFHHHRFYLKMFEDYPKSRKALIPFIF

- inhibition at 0.3 µM [1]: 63%
- inhibition at 0.3 µM [2]: 40%
SMILES: CN1C(=O)CC[C@]2(C)c3ccc(-c4ccc(C(C)(C)C)cc4)cc3CC[C@@H]12 [Example 75, (+)-(4aR)-(10bR)-4-methyl-8-(4-t-butylphenyl)-10b-methyl-1,2,3,4,4a,5,6,10b-octahydrobenzo[f]quinolin-3-one]

- inhibition at 0.3 µM [1]: 94%
- inhibition at 0.3 µM [2]: 27%
SMILES: CN1C(=O)CC[C@]2(C)c3ccc(-c4ccc(F)c(F)c4F)cc3CC[C@@H]12 [Example 232, (+)-(4aR)-(10bR)-4-methyl-8-(2,3,4-trifluorophenyl)-10b-methyl-1,2,3,4,4a,5,6,10b-octahydrobenzo[f]quinolin-3-one]

- inhibition at 0.3 µM [1]: 57%
- inhibition at 0.3 µM [2]: 44%
SMILES: CN1C(=O)CC[C@]2(C)c3ccc(-c4ccc5c(c4)Cc4ccccc4-5)cc3CC[C@@H]12 [Example 131, (+)-(4aR)-(10bR)-4-methyl-8-(2-fluorenyl)-10b-methyl-1,2,3,4,4a,5,6,10b-octahydrobenzo[f]quinolin-3-one]

- inhibition at 0.3 µM [1]: 68%
- inhibition at 0.3 µM [2]: 11%
SMILES: CN1C(=O)CC[C@]2(C)c3ccc(-c4cccc(-c5ccccc5)c4)cc3CC[C@@H]12 [Example 55, (+)-(4aR)-(10bR)-4-methyl-8-(3-biphenyl)-10b-methyl-1,2,3,4,4a,5,6,10b-octahydrobenzo[f]quinolin-3-one]

- inhibition at 0.3 µM [1]: 92%
- inhibition at 0.3 µM [2]: 25%
SMILES: COc1ccc2cc(-c3ccc4c(c3)CC[C@H]3N(C)C(=O)CC[C@]43C)ccc2c1 [Example 81, (+)-(4aR)-(10bR)-4-methyl-8-(2-[6-methoxy]naphthyl)-10b-methyl-1,2,3,4,4a,5,6,10b-octahydrobenzo[f]quinolin-3-one]

- inhibition at 0.3 µM [1]: 81%
- inhibition at 0.3 µM [2]: 58%
SMILES: CN1C(=O)CC[C@]2(C)c3ccc(Sc4cccc5ccccc45)cc3CC[C@@H]12 [Example 103, (+)-(4aR)-(10bR)-4,10b-dimethyl-8-(1-naphthylthio)-1,2,3,4, -4a,5,6,10b-octahydrobenzo[f]quinolin-3-one]

- inhibition at 0.3 µM [1]: 72%
- inhibition at 0.3 µM [2]: 58%
SMILES: CN1C(=O)CC[C@]2(C)c3ccc(-c4ccc(NC(=O)C(C)(C)C)cc4)cc3CC[C@@H]12 [Example 37, (+)-(4aR)-(10bR)-4-methyl-8-(4-t-butylcarbonylaminophenyl)-10b-methyl-1,2,3,4,4a,5,6,10b-octahydrobenzo[f]quinolin-3-one]

- inhibition at 0.3 µM [1]: 3%
- inhibition at 0.3 µM [2]: 31%
SMILES: CN1C(=O)CC[C@]2(C)c3ccc(-c4ccc(F)c(C(F)(F)F)c4)cc3CC[C@@H]12 [Example 46, (+)-(4aR)-(10bR)-4-methyl-8-(4-fluoro-3-trifluoromethylphenyl)-10b-methyl-1,2,3,4,4a,5,6,10b-octahydrobenzo[f]-quinolin-3-one]

- inhibition at 0.3 µM [1]: 85%
- inhibition at 0.3 µM [2]: 43%
SMILES: CN1C(=O)CC[C@]2(C)c3ccc(-c4ccc(COc5ccccc5)s4)cc3CC[C@@H]12 [Example 126, (+)-(4aR)-(10bR)-4-methyl-8-(2-[5-(phenoxymethyl)thienyl])-10b-methyl-1,2,3,4,4a,5,6,10b-octahydrobenzo[f]quinolin-3-one]

Second part, the compound before the results:

SMILES: CN1C(=O)CC[C@]2(C)c3ccc(-c4cc(C(F)(F)F)ccc4Cl)cc3CC[C@@H]12 [Example 33, (+)-(4aR)-(10bR)-4-methyl-8-(2-chloro-5-trifluoromethylphenyl)-10b-methyl-1,2,3,4,4a,5,6,10b-octahydrobenzo[f]-quinolin-3-one]
- inhibition at 0.3 µM [1]: 55%
- inhibition at 0.3 µM [2]: 40%

SMILES: CN1C(=O)CC[C@]2(C)c3ccc(-c4cccc(NC(=O)C(C)(C)C)c4)cc3CC[C@@H]12 [Example 274, (+)-(4aR)-(10bR)-4-methyl-8-(3-[pivaloylamino]phenyl)-10b-methyl-1,2,3,4,4a,5,6,10b-octahydrobenzo[f]quinolin-3-one]
- inhibition at 0.3 µM [1]: 34%
- inhibition at 0.3 µM [2]: 32%

SMILES: CN1C(=O)CC[C@]2(C)c3ccc(Sc4nccs4)cc3CC[C@@H]12 [Example 149, (+)-(4aR)-(10bR)-4-methyl-8-(2-thiazoylthio)-10b-methyl-1,2,3,4,4a,5,6,10b-octahydrobenzo[f]quinolin-3-one]
- inhibition at 0.3 µM [1]: 58%
- inhibition at 0.3 µM [2]: 33%

SMILES: CN1C(=O)CC[C@]2(C)c3ccc(-c4ccc(C(F)(F)F)cn4)cc3CC[C@@H]12 [Example 259, (+)-(4aR)-(10bR)-4-methyl-8-(2-[5-trifluoromethyl]pyridinyl)-10b-methyl-1,2,3,4,4a,5,6,10b-octahydrobenzo[f]quinolin-3-one]
- inhibition at 0.3 µM [1]: 31%
- inhibition at 0.3 µM [2]: 14%

SMILES: CN1C(=O)CC[C@]2(C)c3ccc(Sc4cc(-c5ccccc5)cc(-c5ccccc5)n4)cc3CC[C@@H]12 [Example 181, (+)-(4aR)-(10bR)-4-methyl-8-(2-[4,6-diphenyl]pyridylthio)-10b-methyl-1,2,3,4,4a,5,6,10b-octahydrobenzo[f]quinolin-3-one]
- inhibition at 0.3 µM [1]: 63%
- inhibition at 0.3 µM [2]: 31%

SMILES: CN1C(=O)CC[C@]2(C)c3ccc(C(=O)NCc4ccccc4)cc3CC[C@@H]12 [Example 146, (+)-(4aR)-(10bR)-4-methyl-8-(benzylcarboxamido)-10b-methyl-1,2,3,4,4a,5,6,10b-octahydrobenzo[f]quinolin-3-one]
- inhibition at 0.3 µM [1]: 13%
- inhibition at 0.3 µM [2]: 32%
